Laboratory results: patent US6916844B2, “Hydroxy pyranone derivative and preparation method thereof” (Amorepacific Corporation, priority 2002, dated 2005)

Legend:
Human fibroblasts [1] = assay: Effect on biosynthesis of collagen (procollagen type (I) ELISA); type: cell-based; conditions: 10^-4 M, 24 hours, relative to untreated control group = 100
Description: The effect of the hydroxy pyranone derivatives obtained in Examples 1˜6 on biosynthesis of collagen was compared with those of retinol and retinoic acid.
Human fibroblasts were seeded into a 24-well plate to a density of 10^5 cells/well and then cultured to 90% of growth. The plate was washed with PBS (phosphate buffered saline) and treated with test samples at a concentration of 10^−4M, and then incubated in a CO2 incubator for 24 hours. From its supernatant, procollagen production was measured with procollagen type (I) ELISA kit. The biosynthesis of collagen was evaluated as a relative value compared with that of the control group, which is not treated with sample and of which the value of biosyntheis of collagen was set to be 100.

Human fibroblasts [2] = assay: Collagenase-inhibiting effect (collagenase expression, ELISA kit); type: cell-based; conditions: 10^-4 M, 24 hours, relative to untreated control group = 100
Description: The collagenase-inhibiting effect of hydroxy pyranone derivatives obtained in Examples 1˜6 was compared with those of retinol and retinoic acid.
Human fibroblasts were cultured in Dulbecco's Modified Eagle's Medium (DMEM) supplemented with 2.5% fetal bovine serum. The fibroblasts were seeded into a 96-well microtiter plate to a density of 5,000 cells/well, and then cultured to 70˜80% of growth. The plate was treated with test samples at a concentration of 10^−4M for 24 hours, then the cultured medium and the cells were raked up and recovered. From the recovered culture, collagenase production was measured with collagenase kit (Catalog #: RPN 2610) commercialized by Amersham Pharmacia Biotech. First, the recovered culture was added into a 96-well plate wherein primary collagenase antibodies were uniformly spread, and then antigen-antibody reaction was performed in an incubator for 3 hours. Later, secondary collagenase antibodies bonded with chromophore were added to the 96-well plate and reacted for 15 minutes. Then, color former was added thereto in order to induce development at the room temperature for 15 minutes, and 1M of sulfuric acid was added to stop the reaction. The reaction solution became yellow, and the color density depends on the progress of the reaction. The absorbance of the yellow 96-well plate was measured at 405 nm with absorptiometer. The expression of collagenase was calculated by the following equation 1. No sample was treated in the control group.
[Equation 1] The expression of collagenase (%)=[(Absorbance of test group)/(Absorbance of control group)]×100
The expression of collagenase was evaluated as a relative value compared with that of the control group of which the expression of collagenase was set to be 100.

rabbits = assay: Primary skin irritation test on animals (Draize P.I.I.); type: in vivo; conditions: 1% in 1,3-butylene glycol:ethanol=7:3, 0.5 ml, observed 24 and 72 hours later
Description: This test was performed for six (6) healthy male rabbits whose hairs on both sides of the backs were cut. The compounds of Examples 1˜6 were dissolved in 1,3-butylene glycol:ethanol=7:3, to obtain 1% concentration of test samples. 0.5 ml of each test samples were applied to right side area of 2.5 cm×2.5 cm. No sample was treated on left side as a control. 24 hours and 72 hours later, skin abnormality such as erythema, crust and edema was observed. Based on the score of skin response, skin irritation was estimated according to Draize's P.I.I. (Primary Irritation Index) and compared with that of retinoic acid.

white guinea pigs = assay: Phototoxicity test; type: in vivo; conditions: 1% (w/v) solution, UVA 15 J/cm^2, observed at 24, 48 and 72 hours
Description: This test was performed for ten (10) white guinea pigs whose hairs on both sides of the backs were cut, and fixed. On the back of the guinea pig, six (6) test sites measuring 2.5 cm×2.5 cm, three (3) per each side, were sectioned. Right sites were prepared as controls with no irradiation (UV non-irradiation sites) and left sites were irradiated (UV irradiation sites). Vehicle (1,3-butylene glycol:ethanol=7:3) was used as a negative control, and 0.1% concentration of 8-MOP (methoxypsoralene) was used as a positive control; and 1% (w/v) solutions of the compounds of Examples 1˜6 were applied to either site with an amount of […] for each site. 30 minutes later, right sites were shielded with aluminum foil and UVA(320˜380 nm) was irradiated at a distance of about 10 cm therefrom with Waldmann to the final energy of 15 J/cm^2. After 24, 48 and 72 hours elapsed, skin response of guinea pig was observed. Erythema and edema were scored from 0 to 4 points as shown in the Table 3, and skin response was evaluated by summing the scores. Maximum scores were selected when measured on each elapsed time, i.e. 24, 48 and 72 hours, and irritation index was calculated according to the following equation 2. Then, phototoxic index was calculated according to the following equation 3.
[Equation 2] Irritation index=(Maximum of erythema+Maximum of edema)/Number of animals [Equation 3] Phototoxic index=(Irritation index of UV irradiation site)−(Irritation index of UV non-irradiation site)

[3] = test system: healthy females and males; assay: Human patch test; type: in vivo; conditions: 1% in patch base
Description: This test was performed for thirty (30) healthy females and males aged on average 24.8 years and having no experience of hypersensitivity, according to method of CTFA Guideline (The Cosmetic, Toiletry and Fragrance Association. Inc. Washington, D.C., 20023, 1991). Each compound of Examples 1˜6 was dissolved in patch base having the composition of Table 6 to be 1% concentration as for test materials, and 20 μl of each test materials was dropped into a Finn chamber respectively, then attached to the forearm of the subject and fixed with a micropore tape. After 24 hours of patching, the patches were removed and the test sites were marked with marking pen. The observations of the test sites were made after 24 and 48 hours from the patching.
The average response of Table 8 was calculated by the following equation 4. [formula]

Expression of collagenase (%) (Human fibroblasts [2]): 78%
Number of the subjected showing response, 24 hours later, − (No visible response) ([3]; n = 30, 24 hours later, grade 0): 30
Number of the subjected showing response, 24 hours later, ± (Mild erythema) ([3]; n = 30, 24 hours later, grade 1): 0
Number of the subjected showing response, 24 hours later, + (Intense erythema) ([3]; n = 30, 24 hours later, grade 2): 0
Number of the subjected showing response, 24 hours later, + + (Intense erythema with edema) ([3]; n = 30, 24 hours later, grade 3): 0
Number of the subjected showing response, 24 hours later, + + + (Intense erythema with edema and vesicle) ([3]; n = 30, 24 hours later, grade 4): 0
Number of the subjected showing response, 48 hours later, − (No visible response) ([3]; n = 30, 48 hours later, grade 0): 30
Number of the subjected showing response, 48 hours later, ± (Mild erythema) ([3]; n = 30, 48 hours later, grade 1): 0
Number of the subjected showing response, 48 hours later, + (Intense erythema) ([3]; n = 30, 48 hours later, grade 2): 0
Number of the subjected showing response, 48 hours later, + + (Intense erythema with edema) ([3]; n = 30, 48 hours later, grade 3): 0
Number of the subjected showing response, 48 hours later, + + + (Intense erythema with edema and vesicle) ([3]; n = 30, 48 hours later, grade 4): 0
Substance: ((3E)-4-(2H,3H-benzo [3,4-d] 1,3-dioxolan-5-yl)-2-oxobut-3-enyloxy)-5-hydroxy-4H-pyran-4-one [Compound of Ex. 3]
Biosynthesis of collagen (%) (Human fibroblasts [1]): 123%
Evaluation (skin irritation) (rabbits): No irritation
P. I. I. (Primary Irritation Index) (rabbits): 0.375
Evaluation (phototoxicity) (white guinea pigs): No phototoxicity
Phototoxic index (white guinea pigs; below 0.5 = no phototoxicity): 0
Average Response (n = 30) ([3]; calculated by equation 4, below 1 = no irritation): 0.00
